Measurements reported in ChEMBL document CHEMBL1156578, “Countercurrent separation of natural products” (J Nat Prod, 2008).

Assays:
[1] = Partition coefficient, log K in n-hexane-ethyl acetate-ethyl alcohol-water (1:9:1:9); format: physicochemical
[2] = Partition coefficient, log K in n-hexane-ethyl acetate-ethyl alcohol-water (3:7:1:9); format: physicochemical
[3] = Partition coefficient, log K in n-hexane-ethyl acetate-ethyl alcohol-water (3:7:3:7); format: physicochemical
[4] = Partition coefficient, K in n-butyl alcohol-ethyl acetate-water by shake flask method (2:3:5)
[5] = Partition coefficient, log K in n-hexane-ethyl acetate-ethyl alcohol-water (5:5:3:7); format: physicochemical
[6] = Partition coefficient, log K in n-butyl alcohol-ethyl acetate-water by shake flask method (1:4:5); format: physicochemical
[7] = Octanol-water partition coefficient, log KOW in heptane-ethyl alcohol-water (4:1:4); format: physicochemical

SMILES	log K [1]	log K [2]	log K [3]	K [4]	log K [5]	log K [6]	log K [7]
COc1ccc([C@@H]2OC[C@H]3[C@@H]2CO[C@@H]3c2ccc(O[C@@H]3O[C@H](CO)[C@@H](O)[C@H](O)[C@H]3O)c(OC)c2)cc1OC [PHILLYRIN]	0.799	0.312	0.246	6.25	0.099	3.87	
COc1ccc(/C=C/C(=O)O)cc1OC [O,O'-DIMETHYLCAFFEIC ACID]							1.56
CCNC(=O)c1ccccc1							1.51
